What was measured:
[1] = Dose response in vivo: reticulocytes, hemoglobin, hematocrit (Example 3); set-up: species or system Sprague Dawley male rats; conditions: rats
Procedure: (§1) Twelve Sprague Dawley male rats (approx. 260 g) were obtained from Charles River Laboratories, Inc., and treated by oral gavage as follows: (1) Four rats were dosed daily for days 1 to 7 with 0.5% carboxymethyl cellulose (CMC; Sigma-Aldrich, St. Louis Mo.) (0 mg/kg), were not treated for days 8 to 14, and then were dosed daily for days 15 to 19 with 0.5% CMC (0 mg/kg); (2) four animals were treated on day 0 and day 3 with a total of 7 ml/kg/day of 5.0% compound C (50 mg/ml in 0.5% CMC) (350 mg/kg), were not treated days 8 to 14, and then were dosed daily for days 15 to 19 with 3% compound C: (30 mg/ml in 0.5% CMC) (60 mg/kg/day); and (3) four animals were treated daily for days 1 to 7 with a total volume of 4 ml/kg/day of 2.5% compound C (25 mg/ml in 0.5% CMC) (100 mg/kg), were not treated days 8 to 14, and then were dosed daily for days 15 to 19 with 3% compound C (60 mg/kg/day). Thus, groups (2) and (3) received a total of 700 mg compound/kg body weight over the first 7 days, no treatment from days 8 to 14, and then 60 mg/kg/day for another 5 days. Animals were monitored for change in body weight and signs of toxicity. Blood samples (2×0.5 ml) were collected on days 1, 3, 7, 10, 17 and 21 as follows. Animals were anesthetized with isoflurane and 0.5 ml of blood was collected from the tail vein of each animal into each of two MICROTAINER EDTA-2K tubes (Becton-Dickinson). Blood samples were processed for erythropoietin levels, hemoglobin, and hematocrit as described above.

erythropoietin [2] = experiment: Erythropoietin production following bilateral nephrectomy: serum erythropoietin (Example 8); format: in vivo; conditions: rats, 100 or 150 mg/kg oral gavage at 2 and 20 hours post-surgery, blood at 24 hours, FIG. 7
Procedure: The ability of a compound of the invention to induce endogenous erythropoietin production in the absence of functioning kidney was assayed using a procedure described by Jacobson et al, (1957, Nature 179:633-634.) Briefly, rats were anesthetized under isoflurane and a midline abdominal incision was made under sterile conditions. The kidney capsules were peeled off, the pedicles were ligated, and both kidneys were removed. The abdomen was then closed and the animal was allowed to recover.
Animals were treated by oral gavage at 2 and 20 hours post-surgery with either 0.5% carboxymethyl cellulose (CMC; Sigma-Aldrich, St. Louis Mo.) or with compound C at 100 or 150 mg/kg. Blood samples (0.6 ml) were collected at 24 hours as follows. Animals were anesthetized with isoflurane and blood was collected from the tail vein into a MICROTAINER EDTA-2K tube (Becton-Dickinson). Blood samples were processed for erythropoietin levels and hematocrit as described in Example 2. Complete Blood Count (CBC) analysis, including blood hemoglobin level, reticulocyte number, and hematocrit, was performed by IDEXX veterinary service (W. Sacramento, Calif.).

[3] = format: in vivo, Sprague Dawley male rats
Procedure: The ability of a compound of the invention to treat anemia associated with post-ischemic acute renal failure was assayed using a procedure described by Vaziri et al. (1994, Am J Physiol 266(3 Pt 2):[…]-6.) Fifteen Sprague Dawley male rats (280-300 g) were obtained from Charles River Laboratories. On day 0, rats were treated by intraperitoneal injection with a single dose of saline (control; n=3) at 8 ml/kg, or cisplatin (CP; Bedford Laboratories, Bedford Ohio) at either 7 mg/kg (7 ml/kg; n=6) or 10 mg/kg (10 ml/kg; n=6). Blood samples (0.2 ml) were collected on days 5, 9, and 16 as follows. […] Blood samples were processed for hematocrit as described above to determine the degree of anemia produced in each animal. […] Blood samples (0.5 ml) were collected as described above immediately prior to treatment and 4 days after treatment initiation. Blood samples were analyzed for CBC and reticulocyte counts as described above. On day 9 after initiation of oral treatment, a blood sample (0.1 ml) was collected and processed for hematocrit as described above.

[4] = Hematocrit (Example 2, Experiment I); format: in vivo, Swiss Webster male mice; conditions: mice; 200 mg/kg/day oral gavage 2.5 days; 4 h after final dose; relative to untreated controls; FIG. 2C
Procedure: (§2) Twelve Swiss Webster male mice (30-32 g) were obtained from Simonsen, Inc. (Gilroy Calif.), and treated by oral gavage two times per day for 2.5 days (5 doses) with a 4 ml/kg volume of either 0.5% carboxymethyl cellulose (CMC; Sigma-Aldrich, St. Louis Mo.) (0 mg/kg/day) or 2.5% Compound C (25 mg/ml in 0.5% CMC) (200 mg/kg/day). Four hours after the final dose, animals were anesthetized with isoflurane and two blood samples were collected from the abdominal vein. One blood sample was collected into a MICROTAINER serum separator tube (Becton-Dickinson, Franklin Lakes N.J.), and incubated at room temperature for 30 minutes, centrifuged at 8,000 rpm at 4° C. for 10 minutes. The serum fraction was then processed and analyzed for erythropoietin (EPO) expression using a QUANTIKINE immunoassay (R&D Systems) according to the manufacturer's instructions. The second blood sample was collected into a MICROTAINER EDTA-2K tube (Becton-Dickinson) for hematocrit analysis. Hematocrit was measured by drawing EDTA-blood into a 75 mm×1.1-12 mm I.D. capillary tube (Chase Scientific Glass, Inc., Rockwood Tenn.) to approximately ¾ length. One end of the tube was sealed with CRITOSEAL sealant (Sherwood Medical Company) and the tube was centrifuged in a J-503M MICROHEMATOCRIT centrifuge (Jorgensen Laboratories, Inc., Loveland Colo.) at 12,000 rpm for 5 minutes. Hematocrit was read against a reader card. […]

erythropoietin [5] = experiment: Dose response in vivo: serum erythropoietin (Example 3); set-up: species or system Sprague Dawley male rats; conditions: rats; oral gavage 350 mg/kg on two days or 100 mg/kg daily days 1 to 7; within 1 day of treatment; FIG. 4A
Procedure: as §1, with “Blood samples were processed for erythropoietin levels, hemoglobin, and hematocrit as described above.” left out

erythropoietin (EPO) = experiment: Serum/plasma erythropoietin level by immunoassay (Example 2, Experiment I); format: in vivo, Swiss Webster male mice; conditions: mice; 200 mg/kg/day oral gavage 2.5 days; 4 h after final dose; relative to untreated controls; FIG. 2B
Procedure: as §2

SMILES: O=C(O)CNC(=O)c1nc(Cl)c2ccccc2c1O [Compound C, [(1-chloro-4-hydroxy-isoquinoline-3-carbonyl)-amino]-acetic acid]
- increase in hemoglobin and hematocrit with lower doses ([1]; 60 mg/kg/day days 15 to 19 after no treatment days 8 to 14): maintained over an extended period of time
- immature blood cells (reticulocytes) ([1]; oral gavage, total 700 mg/kg over first 7 days, FIG. 4B): subsequent increase
- blood hemoglobin levels ([1]; oral gavage, total 700 mg/kg over first 7 days, FIG. 4C): increased
- hematocrit ([1]; oral gavage, total 700 mg/kg over first 7 days, FIG. 4D): increased
- serum erythropoietin levels, sham-operated animals (erythropoietin [2]): significantly increased
- serum erythropoietin levels, bilaterally nephrectomized animals (erythropoietin [2]; relative to untreated BN and sham controls): noticably increased
- hematocrit levels versus normal control ([3]; rats initially exposed to 7 mg/kg CP, 2 ml/kg of 2.5% compound C oral once daily 5 days, day 9, FIG. 5A): at or above normal control values
- number of circulating reticulocytes ([3]; rats, CP-treated, 2 ml/kg of 2.5% compound C oral once daily 5 days, FIG. 5B): also increased
- hematocrit versus non-treated counterparts ([3]; rats, CP-treated, 2 ml/kg of 2.5% compound C oral once daily 5 days, day 9 post-treatment, FIG. 5A): significantly higher
- hematocrit in CP-treated animals ([3]; rats, 2 ml/kg of 2.5% compound C oral once daily 5 days from day 19, 4 days after initiating treatment, FIG. 5A): increased
- hematocrit [4]: significantly increased
- serum erythropoietin level (erythropoietin [5]): significantly increased
- erythropoietin plasma level (erythropoietin (EPO)): significant increase

From patent US20130203805A1, “Methods for treating anemia using inhibitors of hypoxia-inducible factor (HIF) hydroxylase” (FIBROGEN, INC., priority 2001, published 2013)
